Experimental data: patent US7087642B2 (priority 1999, dated 2006)
Where two headings read alike, the source gives them in different places.

What was measured:
human PBMC T cells = experiment: cells; format: cell-based; conditions: read-out: T-cells (IC50)
IMPDH human type II = IMPDH human type II (Homo sapiens, UniProt P12268); experiment: biochemical
human PBMC B cells = experiment: cells; format: cell-based; conditions: read-out: B-cells (IC50)

Structure (SMILES)	IC50 (human PBMC T cells; Homo sapiens, 72 h) [nM]	Ki (IMPDH human type II; read-out: Ki) [nM]	IC50 (human PBMC B cells; Homo sapiens, 72 h) [nM]	IC50 (human PBMC T cells) [nM]	IC50 (human PBMC B cells) [nM]	Ki (IMPDH human type II) [nM]
COc1cc(NC(=O)Nc2cccc(CNC(=O)OC(CCN(CC3CC3)C(C)C)c3ccccc3)c2)ccc1-c1cnco1 (stereo not drawn) [Compound 131]	100 to 1000	> 50	100 to 1000			
CC[C@H](CO)OC(=O)NCc1cccc(NC(=O)Nc2ccc(-c3cnco3)c(OC)c2)c1 [Compound 60]	100 to 1000	< 10	100 to 1000			
CCC(CCCO)OC(=O)NCc1cccc(NC(=O)Nc2ccc(-c3cnco3)c(OC)c2)c1 (stereo not drawn) [Compound 44]	100 to 1000	< 10	100 to 1000			
COc1cc(NC(=O)Nc2cccc(CNC(=O)OC(CCN(CC(C)C)CC(C)C)c3ccccc3)c2)ccc1-c1cnco1 (stereo not drawn) [Compound 126]	> 1000	> 50	> 1000			
COc1cc(NC(=O)Nc2cccc(CNC(=O)OC(CCN(C)C(C)C)c3ccccc3)c2)ccc1-c1cnco1 (stereo not drawn) [Compound 128]	100 to 1000	> 50	100 to 1000			
COc1cc(NC(=O)Nc2cccc(CNC(=O)OC3COCC3OCC(=O)O)c2)ccc1-c1cnco1 (stereo not drawn) [Compound 73]		< 10		> 1000	> 1000	
COc1cc(NC(=O)Nc2cccc(CNC(=O)O[C@@H](CO)CC#N)c2)ccc1-c1cnco1 [Compound 62]	100 to 1000	< 10	100 to 1000			
COc1cc(NC(=O)Nc2cccc(CNC(=O)OC(CC[N+](C)(C)C)c3ccccc3)c2)ccc1-c1cnco1 (stereo not drawn) [Compound 36]	> 1000		> 1000			< 10
COc1cc(NC(=O)Nc2cccc(CNC(=O)O[C@H](C)CCC#N)c2)ccc1-c1cnco1 [Compound 47]	100 to 1000	< 10	100 to 1000			
COc1cc(NC(=O)Nc2cccc(CNC(=O)O[C@@H]3C=C[C@H](OC(C)=O)C3)c2)ccc1-c1cnco1 [Compound 78]	100 to 1000	< 10	100 to 1000			
CC[C@H](CCN(CC)CC)OC(=O)NCc1cccc(NC(=O)Nc2ccc(-c3cnco3)c(OC)c2)c1 [Compound 92]	100 to 1000	< 10	100 to 1000			
CCC(COC)OC(=O)NCc1cccc(NC(=O)Nc2ccc(-c3cnco3)c(OC)c2)c1 (stereo not drawn) [Compound 42]	100 to 1000	< 10	100 to 1000			
COc1cc(NC(=O)Nc2cccc(CNC(=O)OCC(OCc3ccco3)N(CCC#N)CC(C)C)c2)ccc1-c1cnco1 (stereo not drawn) [Compound 4]	> 1000	< 10	> 1000			
CCC(CCN1CCOCC1)OC(=O)NCc1cccc(NC(=O)Nc2ccc(-c3cnco3)c(OC)c2)c1 (stereo not drawn) [Compound 65]	100 to 1000	< 10	100 to 1000			
COc1cc(NC(=O)Nc2cccc(CNC(=O)OC(CCN(CC(C)C)CC3CC3)c3ccccc3)c2)ccc1-c1cnco1 (stereo not drawn) [Compound 127]	> 1000	> 50	> 1000			
CCN(CC)CC(OC(=O)Nc1ccc(NC(=O)Nc2ccc(-c3cnco3)c(OC)c2)cc1)C(C)(C)C (stereo not drawn) [Compound 132]	100 to 1000	> 50	100 to 1000			
COc1cc(NC(=O)Nc2cccc(CNC(=O)OC(C)CC#N)c2)ccc1-c1cnco1 (stereo not drawn) [Compound 26]	< 100	< 10	< 100			
COc1cc(NC(=O)Nc2cccc(CNC(=O)O[C@@H](C)CC#N)c2)ccc1-c1cnco1 [Compound 28]		< 10		100 to 1000	100 to 1000	
COc1cc(NC(=O)Nc2cccc(CNC(=O)OC(CC#N)C(C)C)c2)ccc1-c1cnco1 (stereo not drawn) [Compound 40]	> 1000	< 10	100 to 1000			
CCN(CC)CC(CO)OC(=O)NCc1cccc(NC(=O)Nc2ccc(-c3cnco3)c(OC)c2)c1 (stereo not drawn) [Compound 80]	100 to 1000	< 10	100 to 1000			
CCCCC(CC#N)OC(=O)NCc1cccc(NC(=O)Nc2ccc(-c3cnco3)c(OC)c2)c1 (stereo not drawn) [Compound 33]	100 to 1000	< 10	100 to 1000			
COc1cc(NC(=O)Nc2cccc(CNC(=O)OC(CCN3CCOCC3)c3ccccc3)c2)ccc1-c1cnco1 (stereo not drawn) [Compound 48]	100 to 1000	< 10	100 to 1000			
CCCC(COC)OC(=O)NCc1cccc(NC(=O)Nc2ccc(-c3cnco3)c(OC)c2)c1 (stereo not drawn) [Compound 38]	100 to 1000	< 10	100 to 1000			
COc1cc(NC(=O)Nc2cccc(CNC(=O)O[C@@H](C)CN(C)Cc3ccco3)c2)ccc1-c1cnco1 [Compound 30]	> 1000	< 10	100 to 1000			
CCN(CC(OC(=O)NCc1cccc(NC(=O)Nc2ccc(-c3cnco3)c(OC)c2)c1)C1CCCCC1)C(C)C (stereo not drawn) [Compound 158]	> 1000	10 to 50	100 to 1000			
CCCN(CCC)CCC(OC(=O)NCc1cccc(NC(=O)Nc2ccc(-c3cnco3)c(OC)c2)c1)c1ccccc1 (stereo not drawn) [Compound 123]	> 1000	> 50	> 1000			
